# Laboratory results published in ChEMBL document CHEMBL1201862, “PubChem BioAssay data set” (2004).
#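 How tested: cells in 96-well plates exposed to compound for 48 hours at five concentrations. At the GI50, growth is halved.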 Calls of active or inactive are those of the source. No stated cut-off is given here; in the data, active = GI50 up to about 1.1 µM and inactive = higher.
# Experiments:
# Test in all cases: DTP human tumour cell line panel, 48 h
# UACC-62 = test system: UACC-62
# MDA-N = test system: MDA-N
# SK-MEL-5 = test system: SK-MEL-5
# COLO 205 = test system: COLO 205
# UO-31 = test system: UO-31
# CCRF-CEM = test system: CCRF-CEM
# SK-MEL-2 = test system: SK-MEL-2
# CAKI-1 = test system: CAKI-1
# 786-0 = test system: 786-0
# SF-295 = test system: SF-295
# Malme-3M = test system: Malme-3M
# T47D = test system: T47D
# SK-OV-3 = test system: SK-OV-3
# DU-145 = test system: DU-145
# BT-549 = test system: BT-549
# IGROV-1 = test system: IGROV-1
# OVCAR-5 = test system: OVCAR-5
# K562 = test system: K562
# SN12C = test system: SN12C
# TK-10 = test system: TK-10
# HOP-92 = test system: HOP-92
# PC-3 = test system: PC-3
# NCI/ADR-RES = test system: NCI/ADR-RES
# SW-620 = test system: SW-620
# OVCAR-8 = test system: OVCAR-8
# LOX IMVI = test system: LOX IMVI
# HCT-15 = test system: HCT-15
# MCF7 = test system: MCF7
# UACC-257 = test system: UACC-257
# MDA-MB-231 = test system: MDA-MB-231
# U-251 = test system: U-251
# HT-29 = test system: HT-29
# EKVX = test system: EKVX
# A549 = test system: A549
# RXF 393 = test system: RXF 393
# SNB-75 = test system: SNB-75
# HOP-62 = test system: HOP-62
# M14 = test system: M14
# SNB-19 = test system: SNB-19
# SK-MEL-28 = test system: SK-MEL-28
# RPMI-8226 = test system: RPMI-8226
# HCT-116 = test system: HCT-116
# A498 = test system: A498
# KM12 = test system: KM12
# Hs-578T = test system: Hs-578T
# NCI-H522 = test system: NCI-H522
# MDA-MB-435 = test system: MDA-MB-435
# MOLT-4 = test system: MOLT-4
# OVCAR-4 = test system: OVCAR-4
# SR = test system: SR
# NCI-H460 = test system: NCI-H460
# SF-268 = test system: SF-268
# OVCAR-3 = test system: OVCAR-3
# HCC 2998 = test system: HCC 2998
# NCI-H226 = test system: NCI-H226
# ACHN = test system: ACHN
# SF-539 = test system: SF-539
# NCI-H23 = test system: NCI-H23
smiles,measurement,setting,value
Nc1ccc(CCSSCCc2ccc(N)cc2)cc1,GI50,UACC-62,26.5 µM (inactive)
same,GI50,MDA-N,27.7 µM (inactive)
same,GI50,SK-MEL-5,19.8 µM (inactive)
same,GI50,COLO 205,41.1 µM (inactive)
same,GI50,UO-31,22.7 µM (inactive)
same,GI50,CCRF-CEM,1.38 µM (inactive)
same,GI50,SK-MEL-2,20.2 µM (inactive)
same,GI50,CAKI-1,26.4 µM (inactive)
same,GI50,786-0,17 µM (inactive)
same,GI50,SF-295,39 µM (inactive)
same,GI50,Malme-3M,12.2 µM (inactive)
same,GI50,T47D,35.6 µM (inactive)
same,GI50,SK-OV-3,43.6 µM (inactive)
same,GI50,DU-145,28.3 µM (inactive)
same,GI50,BT-549,25.5 µM (inactive)
same,GI50,IGROV-1,37.1 µM (inactive)
same,GI50,OVCAR-5,29.6 µM (inactive)
same,GI50,K562,6.4 µM (inactive)
same,GI50,SN12C,22.9 µM (inactive)
same,GI50,TK-10,36.1 µM (inactive)
same,GI50,HOP-92,34.5 µM (inactive)
same,GI50,PC-3,29.4 µM (inactive)
same,GI50,NCI/ADR-RES,23.2 µM (inactive)
same,GI50,SW-620,30 µM (inactive)
same,GI50,OVCAR-8,28 µM (inactive)
same,GI50,LOX IMVI,21.9 µM (inactive)
same,GI50,HCT-15,23.4 µM
same,GI50,MCF7,29.7 µM (inactive)
same,GI50,UACC-257,20 µM (inactive)
same,GI50,MDA-MB-231,39.3 µM (inactive)
same,GI50,U-251,19.6 µM (inactive)
same,GI50,HT-29,21.8 µM (inactive)
same,GI50,EKVX,53.5 µM (inactive)
same,GI50,A549,35.1 µM (inactive)
same,GI50,RXF 393,21.8 µM (inactive)
same,GI50,SNB-75,30.9 µM (inactive)
same,GI50,HOP-62,55.2 µM (inactive)
same,GI50,M14,30 µM (inactive)
same,GI50,SNB-19,50.7 µM (inactive)
same,GI50,SK-MEL-28,28.3 µM (inactive)
same,GI50,RPMI-8226,25.1 µM (inactive)
same,GI50,HCT-116,16.1 µM (inactive)
same,GI50,A498,32.1 µM (inactive)
same,GI50,KM12,30.3 µM (inactive)
same,GI50,Hs-578T,16.2 µM (inactive)
same,GI50,NCI-H522,12.9 µM (inactive)
same,GI50,MDA-MB-435,26.9 µM (inactive)
same,GI50,MOLT-4,1.81 µM (inactive)
same,GI50,OVCAR-4,28.6 µM (inactive)
same,GI50,SR,0.991 µM (active)
same,GI50,NCI-H460,25.7 µM (inactive)
same,GI50,SF-268,18.4 µM (inactive)
same,GI50,OVCAR-3,31.6 µM (inactive)
same,GI50,HCC 2998,17.6 µM (inactive)
same,GI50,NCI-H226,27.5 µM (inactive)
same,GI50,ACHN,29.6 µM (inactive)
same,GI50,SF-539,24.9 µM (inactive)
same,GI50,NCI-H23,29.7 µM (inactive)
c1cc(CCN2CCCCC2)ccn1,GI50,UACC-62,> 100 µM (inactive)
same,GI50,MDA-N,> 100 µM (inactive)
same,GI50,SK-MEL-5,> 100 µM (inactive)
same,GI50,COLO 205,> 100 µM (inactive)
same,GI50,UO-31,> 100 µM (inactive)
same,GI50,SK-MEL-2,> 100 µM (inactive)
same,GI50,CAKI-1,> 100 µM (inactive)
same,GI50,786-0,> 100 µM (inactive)
same,GI50,SF-295,> 100 µM (inactive)
same,GI50,Malme-3M,> 100 µM (inactive)
same,GI50,T47D,> 100 µM (inactive)
same,GI50,SK-OV-3,> 100 µM (inactive)
same,GI50,DU-145,> 100 µM (inactive)
same,GI50,BT-549,> 100 µM (inactive)
same,GI50,IGROV-1,> 100 µM (inactive)
same,GI50,OVCAR-5,> 100 µM (inactive)
same,GI50,K562,> 100 µM (inactive)
same,GI50,SN12C,> 100 µM (inactive)
same,GI50,TK-10,> 100 µM (inactive)
same,GI50,HOP-92,> 100 µM (inactive)
same,GI50,PC-3,> 100 µM (inactive)
same,GI50,NCI/ADR-RES,> 100 µM (inactive)
same,GI50,SW-620,> 100 µM (inactive)
same,GI50,OVCAR-8,> 100 µM (inactive)
same,GI50,LOX IMVI,> 100 µM (inactive)
same,GI50,HCT-15,> 100 µM
same,GI50,MCF7,> 100 µM (inactive)
same,GI50,UACC-257,> 100 µM (inactive)
same,GI50,MDA-MB-231,> 100 µM (inactive)
same,GI50,U-251,> 100 µM (inactive)
same,GI50,HT-29,> 100 µM (inactive)
same,GI50,EKVX,> 100 µM (inactive)
same,GI50,A549,> 100 µM (inactive)
same,GI50,RXF 393,> 100 µM (inactive)
same,GI50,SNB-75,> 100 µM (inactive)
same,GI50,HOP-62,> 100 µM (inactive)
same,GI50,M14,> 100 µM (inactive)
same,GI50,SNB-19,> 100 µM (inactive)
same,GI50,SK-MEL-28,> 100 µM (inactive)
same,GI50,RPMI-8226,> 100 µM (inactive)
same,GI50,HCT-116,> 100 µM (inactive)
same,GI50,A498,> 100 µM (inactive)
same,GI50,KM12,> 100 µM (inactive)
same,GI50,Hs-578T,> 100 µM (inactive)
same,GI50,NCI-H522,> 100 µM (inactive)
same,GI50,MDA-MB-435,> 100 µM (inactive)
same,GI50,MOLT-4,35.2 µM (inactive)
same,GI50,OVCAR-4,> 100 µM (inactive)
same,GI50,SR,33.3 µM (inactive)
same,GI50,NCI-H460,> 100 µM (inactive)
same,GI50,SF-268,> 100 µM (inactive)
same,GI50,OVCAR-3,> 100 µM (inactive)
same,GI50,NCI-H226,> 100 µM (inactive)
same,GI50,ACHN,> 100 µM (inactive)
same,GI50,SF-539,> 100 µM (inactive)
same,GI50,NCI-H23,> 100 µM (inactive)
